Assay results: US20110293658A1, “USE OF INKT OR TLR AGONISTS FOR PROTECTING AGAINST OR TREATING A DISEASE SUCH AS ACUTE INFECTION OR CANCER” (LUDWIG INSTITUTE FOR CANCER RESEARCH LTD., priority 2008, published 2011)
Several values for one entry are separate records, joined by “and”; a condition that tells them apart may be missing. Equal values may be shown once.

Tests used:
[1] = test system: CD11bCD15 positive cells; assay: Melan-A priming experiments with CD11bCD15 positive cells from melanoma patients; assay type: cell-based, human; conditions: CD11bCD15 positive cells pulsed with alphaGalCer 100 ng or Threitolceramide 200 ng
Description: CD11bCD15 positive cells were pulsed with either alphaGalCer (100 ng) or Threitolceramide (200 ng) for 2 hours and then incubated with autologous iNKT cells overnight before adding autologous DC pulsed with Melan-A26-35 peptide and autologous CD11bCD15 cell depleted total leukocytes.
Experiments in FIG. 29 were carried out using the same conditions as shown in the right column of FIG. 28 (i.e. in the presence of iNKT cells and alphaGalCer pulsed CD11bCD15 positive cells) in the presence of either blocking anti CD1d (middle column) or blocking anti CD40 (right column) antibodies.
In order to assess whether secretion of IL-10 is contributing to the suppressive activity of CD11bCD15 positive cells, expansion of Melan-A26-35 specific T cell responses as assessed in the presence or absence of blocking anti 11-10 receptor antibodies. In the left hand panel of FIG. 31, expansion of Melan-A26-35 specific T cells was assessed using total leukocytes from which CD11b-CD15+ cells were removed (2.33%). Addition of CD11bCD15 positive cells reduced the frequency of Melan-A26-35 specific T cells (0.83%) (central panel).
Purification of CD11b/CD15+ cells. Since CD15 CD11b positive cells have granulocyte density, it is important to purify them without using density gradients, such as Ficol. Red blood cells are lysed from whole blood, using red lysis cell buffer and anti CD11b/CD15 specific antibodies are added to the leukocytes for FACS guided cell sorting.
Melan-A priming experiments. DCs were generated by culturing monocytes for 4 days in RPMI/10% FCS supplemented with 50 ng/ml GM-CSF (Pepro-tech) and 1,000 U/ml IL-4 (Salio, M., et al. 2007. Proc. Natl. Acad. Sci. U.S.A. 104:20490-20495). […] After 2 weeks, cells were stained with HLA-A2 tetramers loaded with melan-A26-35 peptide and anti CD8.
Harnessing iNKT cells. The protocol to purify Cdl lbCd15 cells and differentiate DC is similar to the protocol described earlier. Cdl lbCd15 cells were pulsed with either alphaGalCer (100 ng) or with threitolceramide (200 ng) and then incubated with iNKT cells for 12 hours. Cells were then washed pulsed with the melan-A26-35 peptide and incubated with total leukocytes. After 2 weeks in culture, cells were stained with HLA-A2 melan-A tetramers and anti-CD8 antibodies.

[2] = test system: human MDSC; assay: iNKT cell dependent killing of α-GalCer pulsed human MDSC (Propidium Iodide); assay type: cell-based; conditions: α-GalCer 100 ng/ml, MDSC:iNKT cell ratio of 1:0.25, 24 h
Description: (B) Conditions to prevent lysis of α-GalCer pulsed human MDSC by iNKT cells. Human MDSC (0.5×10^6) were treated with α-GalCer (100 ng/ml) and co-cultured with increasing numbers of iNKT cells for 24 h. MDSC were stained with Propidium Iodide to calculate the percentage of iNKT cell dependent MDSC killing.

[3] = test system: EG7 cells (EL4 tumor cell line transfected with ovalbumin cDNA); parameters: species or system C57 BL/6 mice; conditions: mouse, in vivo, iv
[4] = test system: BM derived MDSC; assay: Phenotypic analysis of treated MDSC (FACS); assay type: cell-based, mouse
[5] = test system: IL-23 and IL-12p70; assay: IL-23 and IL-12p70 secretion by α-GalCer pulsed MDSC; assay type: cell-based, mouse; conditions: MDSC pulsed with α-GalCer in the presence of iNKT cells; data not shown
[6] = test system: IL-12p40; assay: IL-12p40 production by MDSC (ELISA); assay type: cell-based, mouse; conditions: MDSC pulsed with 100 ng α-GalCer in the presence of iNKT cells
[7] = test system: BM derived MDSC; assay: OT-I proliferation assay with BM derived MDSC; assay type: cell-based, mouse; conditions: MDSC pulsed with α-GalCer in the presence of BM resident iNKT cells from WT mice
[8] = test system: BM derived MDSC; assay: iNKT cell dependent lysis of α-GalCer pulsed MDSC; assay type: cell-based, mouse; conditions: MDSC pulsed with 100 ng of α-GalCer
Description: CFSE labelled BM derived MDSC were either pulsed or not pulsed with α-GalCer and incubated with CD11c and Gr-1 depleted BM cultures, which contain iNKT cells.

[9] = test system: iNKT cells; assay: IFN-γ release from iNKT cells incubated with α-GalCer pulsed CD11b+ cells; assay type: cell-based, human; conditions: α-GalCer pulsed CD11b+ cells from IAV infected patients, 24 h
Description: (C) iNKT cells are activated by α-GalCer pulsed CD11b^+ cells from IAV infected patients. IFN-γ release from iNKT cells incubated for 24 h with α-GalCer pulsed CD11b^+ cells, derived from the IAV infected patients and healthy controls described in FIG. 7. Data represent the average of 3 replicates ±S.D.

[10] = test system: CD11b+ cells from IAV infected individuals; assay type: cell-based, human; conditions: α-GalCer 100 ng/ml in presence of iNKT cells at MDSC:iNKT ratio 1:0.25, or ARG1 and NOS2 inhibitors; DC:CD11b+ 1:1
[11] = test system: ARG1; assay: ARG1 activity of α-GalCer pulsed MDSC (urea release); assay type: cell-based, mouse; conditions: MDSC pulsed with 100 ng α-GalCer in the presence of iNKT cells
Description: (§1) (A) Loss of ARG1 and NOS2 activity in α-GalCer pulsed MDSC incubated with BM derived iNKT cells. MDSC were treated with α-GalCer in the presence of iNKT cells and collected at different time points. ARG1 and NOS2 activities were measured using a colorimetric assay to evaluate urea and nitrate/nitrite release, respectively (De Santo et al. 2005. Proc Natl Acad Sci USA 102:4185-4190. Serafini et al. 2006. J Exp Med 203:2691-2702). An ELISA was used to evaluate IL-12p40 production. Values are shown as a percentage of time point 0. The maximum amount of urea released by untreated MDSC (1×10^6) was 91.7 μg. The maximum amount of […] measured in the supernatant of untreated MDSC was 120 μM. The maximum amount of IL-12p40 was 200 ng/ml.
(§2) Measuring activity of MDSC enzymes. ARG1 and NOS2 activities of α-GalCer pulsed BM-derived MDSC co-cultured with BM derived iNKT cells were assessed at different time points. NOS2 activity was measured from supernatants by Griess reaction, as the amount of NO3- and NO2-produced using a nitrate/nitrite assay kit (Cayman Chemicals) (Proc Natl Acad Sci USA 102:4185-4190). ARG1 activity was measured in cell lysates, as previously described (Proc Natl Acad Sci USA 102:4185-4190).

[12] = test system: NOS2; assay: NOS2 activity of α-GalCer pulsed MDSC (nitrate/nitrite release); assay type: cell-based, mouse; conditions: MDSC pulsed with 100 ng α-GalCer in the presence of iNKT cells
Description: as §1, §2

## CCCCCCCCCCCCCCCCCCCCCCCCCC(=O)N[C@@H](CO[C@H]1O[C@H](CO)[C@H](O)[C@H](O)[C@H]1O)[C@H](O)[C@H](O)CCCCCCCCCCCCCC [α-GalCer, α-Galactosylceramide]
[1]; in the absence of added iNKT cells, unpulsed 0.34%
  frequency of Melan-A26-35 specific T cells: 0.32%
[1]; with addition of autologous iNKT cells
  frequency of Melan-A26-35 specific T cells: 3.05% and 6.42%
[2]
  iNKT cell dependent MDSC lysis: did not cause iNKT cell dependent MDSC lysis
[3]
  frequency of MDSCs (CD11b+Gr1+ positive cells): lower frequency
  frequency of Ova specific T cell responses (H-2Kb tetramer staining): higher frequency
  tumor size / tumor regression: Tumour regression
[4]; CFSE labelled α-GalCer pulsed MDSC incubated with iNKT cells, 48 h
  differentiation of CD11c- MDSC (CD11c expression): differentiation into CD11c^+ cells
[4]; α-GalCer pulsed MDSC incubated with iNKT cells, data not shown
  CD86 and MHC class II expression: up-regulation
[5]
  secretion of IL-23 and IL-12p70: No secretion
[6]
  secretion of IL-12 p40: enhanced secretion
[7]
  MDSC suppression of CFSE labelled OT-I proliferation: completely relieved
[8]
  lysis of pulsed MDSC by iNKT cells: not lysed
[9]
  activation of iNKT cells (IFN-γ release): activated
[10]
  suppressive activity of CD11b+ cells collected from IAV infected individuals (MLR proliferation): could be reduced
[11]
  ARG1 activity: reduction
[12]
  NOS2 activity: reduction
